Laboratory results reported in patent US6008230A, “Quinoline compounds as H^+ -ATPases” (Fujisawa Pharmaceutical Co., Ltd., priority 1995, dated 1999).
Counter-ions that a name gives are not always drawn.

Key:
[1] = system: vacuolar type H^+ -ATPase; experiment: Inhibition of vacuolar type H^+ -ATPase proton transport; type: biochemical; conditions: microsomes from mouse peritoneal macrophages; acridine orange uptake; concentration 1×10^-6 M; pH 7.0
Procedure: Test 1 (Inhibition of vacuolar type H^+ -ATPase proton transport): Test Method (a) Preparation of microsomes from mouse peritoneal macrophages Seven-week-old male ddY mice were injected intraperitoneally with 2 ml of 3% thioglycolate medium. After 3-5 days, the mice were decapitated, and the peritoneal macrophages were obtained by peritoneal lavage with 5-6 ml of Hanks' balanced salt solution (HBSS). The cells were washed twice with cold HBSS. Vesicles were prepared from the cells, homogenized in a Douncee homogenizer (20 strokes) in 10 ml of 250 mM sucrose, 5 mM Tris, 1 mM EGTA, 1 mM KHCO3 and 1 mM dithiothreitol, pH 7.0, at 4° C. After an initial centrifugation (1000× g for 5 minutes), the supernatant was centrifuged 6000× g for 15 minutes) to remove mitochondria and lysosomes. The supernatant was centrifuged at 42000× g for 30 minutes, and microsomal pellet was collected and stored at -80° C. (b) Measurement of proton transport Proton transport was assayed with a dual-wavelength spectrophotometer by monitering uptake of acridine orange (Reference 540 nm, Measurement 492 nm) [H. C. Blair, J. Cell. Biol., 102, 1164 (1986)] with aliquot of membrane vesicles suspended in […] of assay buffer containing 150 mM KCl, 10 mM bis-tris-propane, 2 mM MgCl2, […], […] oligomycin and test compounds (concentration: 1×10^-6 M), pH 7.0. The reaction was initiated by addition of 1 mM ATP. Results were expressed as the percent of control.

[2] = system: PTH-induced bone resorption (calvariae from Wistar rats); experiment: Bone organ culture: inhibition of PTH-induced bone resorption; type: cell-based; conditions: 144 h; Wistar rat calvariae; 10^-8 M human PTH (1-34); concentration 1×10^-6 M; six days
Procedure: Test 2 (Bone organ culture) Test Method […] In control dishes, PTH was not added. Control and PTH control were exposed to an equivalent concentration of the vehicle. Six days later, the concentration of calcium ((Ca]) in the medium was measured by methylxylenol blue method and the percentage of inhibition of PTH-induced bone resorption was calculated according to following formula [formula] Cp: [Ca] in PTH control dishes CD: [Ca] in the test compound dishes C0 : [Ca] in control dishes

Inhibition (%) of vacuolar type H^+ -ATPase proton transport [1] [%]	SMILES	inhibition at 1 µM [2] [%]
93	C=Cc1cnc2c(NC(=O)c3c(Cl)cccc3Cl)cccc2c1CC(=O)NCc1ccccn1 [71-(2), 8-(2,6-dichlorobenzoylamino)-4-[(pyridin-2-ylmethyl)carbamoylmethyl]-3-vinylquinoline]	100
97	O=C(Nc1cccc2c(-n3cccn3)ccnc12)c1c(Cl)cccc1Cl [85-(2) (free), 8-(2,6-Dichlorobenzoylamino)-4-(pyrazol-1-yl)quinoline]	100
100	C#Cc1cnc2c(NC(=O)c3c(Cl)cccc3Cl)cccc2c1 [Example 5, 8-(2,6-dichlorobenzoylamino)-3-ethynylquinoline]	98
94	C=CCc1cnc2c(NC(=O)c3c(Cl)cccc3Cl)cccc2c1Sc1ncc[nH]1 [28 (dihydrochloride), 8-(2,6-Dichlorobenzoylamino)-4-(imidazol-2-ylthio)-3-allylquinoline]	100
100	Cl.N#Cc1cnc2c(NC(=O)c3c(Cl)cccc3Cl)cccc2c1Cn1ccnc1 [52 (hydrochloride), 3-cyano-8-(2,6-dichlorobenzoylamino)-4-(imidazol-1-ylmethyl)quinoline hydrochloride]	100
